Measured values: patent US20260199484A1, “PROTAC DEGRADERS OF MLLT1 AND/OR MLLT3” (DARK BLUE THERAPEUTICS LTD, priority 2024, published 2026)

Columns and labels:
[1] = tested on: MV4-11 cells; test: MV4-11 cellular proliferative assay, Assay Format B (CTG 2.0, 168 h); assay type: cell-based; details: Homo sapiens, Assay format B, 168 h, read-out: IC50 (MV4-11 cellular proliferative assay)
Protocol: MV4-11 cells at a confluency of ~50-80% was used for cell growth assay. 600 cells/well in a 384-well opaque cell culture plate (6007680; Perkin Elmer) were seeded in 40 μL of complete medium (IMDM+10% FBS+1× Penicillin-Streptomycin). Cells were incubated overnight at 37° C., 5% CO2. 10 mM DMSO stocks were prepared, cells were treated with 10 concentrations of test compounds starting from 1 uM or 100 nM, 3-fold dilution in 10 uL (5× concentration) of complete medium. Final DMSO concentration was 0.3%. Culture plates were centrifuged at 40×g, 30s. Cells were incubated with compounds for 168 h (7 days). After 7 days, 20 uL CTG 2.0 reagent (G9242; Promega) was added per well and luminescence reading was taken in Envision Xcite 2105 multimode plate reader. Data was analyzed in GraphPad Prism 10.0 and data was shown as % viability with respect to DMSO control and dose-response curves were generated using four parameter logistic regression. Assay quality was determined by z-factor calculation using positive and negative controls.

[2] = molecular target: T1, MLLT1 (Homo sapiens, UniProt Q03111); test: MLLT1 degradation assay in MV4-11 cells (JESS, 24 h); assay type: cell-based; set-up: endogenous in cells; host or cells: MV4-11 (ATCC CRL-9591); details: vs DMSO control
T1 sequence (Q03111 1-559): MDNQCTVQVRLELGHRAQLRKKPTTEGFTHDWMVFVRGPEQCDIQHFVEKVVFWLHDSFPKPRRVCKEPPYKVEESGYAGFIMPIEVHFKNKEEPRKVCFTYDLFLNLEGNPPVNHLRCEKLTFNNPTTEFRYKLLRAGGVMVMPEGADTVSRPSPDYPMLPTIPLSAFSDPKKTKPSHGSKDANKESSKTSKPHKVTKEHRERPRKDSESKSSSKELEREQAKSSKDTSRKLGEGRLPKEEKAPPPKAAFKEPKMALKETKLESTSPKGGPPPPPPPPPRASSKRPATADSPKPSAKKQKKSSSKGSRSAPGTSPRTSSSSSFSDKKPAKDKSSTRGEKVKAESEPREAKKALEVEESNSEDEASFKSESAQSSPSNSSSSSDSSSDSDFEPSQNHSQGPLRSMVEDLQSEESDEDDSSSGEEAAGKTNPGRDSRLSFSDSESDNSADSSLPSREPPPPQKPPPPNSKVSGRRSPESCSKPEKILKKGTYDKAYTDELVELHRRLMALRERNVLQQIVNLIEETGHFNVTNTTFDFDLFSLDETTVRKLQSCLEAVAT
In short: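 MV4-11 cells treated at 1000, 100 and 10 nM (0.1% DMSO) for 24 h at 37° C; lysates (4 ug protein) run on JESS capillary immunoassay with MLLT1 and GAPDH antibodies. Peak areas give % degradation versus DMSO, binned A (≥75%) to D (<25%).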

IC50 [1] | MLLT1% Degradation @ 0.01 μM [2] | MLLT1% Degradation @ 0.1 μM [2] | MLLT1% Degradation @ 1 μM [2] | Structure (SMILES)
< 100 nM | A (Category A: A≥75% degradation) | A (Category A: A≥75% degradation) | A (Category A: A≥75% degradation) | Cc1nn(CCCCCCCC=C(Cl)c2ccc3c(c2)n(C)c(=O)n3C2CCC(=O)NC2=O)c2cc(C(=O)Nc3cc4[nH]c([C@H]5CCCN5C)cc4cn3)ccc12 (mixture of isomers) [Example 40]
< 100 nM | A (Category A: A≥75% degradation) | A (Category A: A≥75% degradation) | A (Category A: A≥75% degradation) | Cc1nn(CCCCCCCC#Cc2cccc3c2CN([C@H]2CCC(=O)NC2=O)C3=O)c2cc(C(=O)Nc3cc4[nH]c([C@H]5CCCN5C)cc4cn3)ccc12 (relative stereo) [Example 98, 1-(9-(2-((rel-S)-2,6-dioxopiperidin-3-yl)-1-oxoisoindolin-4-yl)non-8-yn-1-yl)-3-methyl-N-(2-((R)-1-methylpyrrolidin-2-yl)-1H-pyrrolo[3,2-c]pyridin-6-yl)-1H-indazole-6-carboxamide]
< 100 nM | A (Category A: A≥75% degradation) | A (Category A: A≥75% degradation) | A (Category A: A≥75% degradation) | Cc1nn(CCCCCCCC#Cc2cccc3c2CN([C@@H]2CCC(=O)NC2=O)C3=O)c2cc(C(=O)Nc3cc4[nH]c([C@H]5CCCN5C)cc4cn3)ccc12 (relative stereo) [Example 99, 1-(9-(2-((rel-R)-2,6-dioxopiperidin-3-yl)-1-oxoisoindolin-4-yl)non-8-yn-1-yl)-3-methyl-N-(2-((R)-1-methylpyrrolidin-2-yl)-1H-pyrrolo[3,2-c]pyridin-6-yl)-1H-indazole-6-carboxamide]

The next lines start with the compound.

Structure (SMILES) | IC50 [1] | MLLT1% Degradation @ 0.01 μM [2] | MLLT1% Degradation @ 0.1 μM [2] | MLLT1% Degradation @ 1 μM [2]
Cc1nn(CCCCCCCC#Cc2cccc3c2CN([C@H]2CCC(=O)NC2=O)C3=O)c2cc(C(=O)Nc3cc4[nH]c([C@H]5CCCN5C)c(Cl)c4cn3)ccc12 (relative stereo) [Example 100, N-(3-chloro-2-((R)-1-methylpyrrolidin-2-yl)-1H-pyrrolo[3,2-c]pyridin-6-yl)-1-(9-(2-((rel-S)-2,6-dioxopiperidin-3-yl)-1-oxoisoindolin-4-yl)non-8-yn-1-yl)-3-methyl-1H-indazole-6-carboxamide] | < 100 nM | – | – | –
Cc1nn(CCCCCCCC#Cc2cccc3c2CN([C@@H]2CCC(=O)NC2=O)C3=O)c2cc(C(=O)Nc3cc4[nH]c([C@H]5CCCN5C)c(Cl)c4cn3)ccc12 (relative stereo) [Example 101, N-(3-chloro-2-((R)-1-methylpyrrolidin-2-yl)-1H-pyrrolo[3,2-c]pyridin-6-yl)-1-(9-(2-((rel-R)-2,6-dioxopiperidin-3-yl)-1-oxoisoindolin-4-yl)non-8-yn-1-yl)-3-methyl-1H-indazole-6-carboxamide] | < 100 nM | – | – | –
Cc1nn(CCCCCCCC#Cc2cccc3c2CN([C@H]2CCC(=O)NC2=O)C3=O)c2cc(C(=O)Nc3cc4[nH]c([C@H]5CCCN5C)cc4cn3)c(F)cc12 (relative stereo) [Example 102, 1-(9-(2-((rel-S)-2,6-dioxopiperidin-3-yl)-1-oxoisoindolin-4-yl)non-8-yn-1-yl)-5-fluoro-3-methyl-N-(2-((R)-1-methylpyrrolidin-2-yl)-1H-pyrrolo[3,2-c]pyridin-6-yl)-1H-indazole-6-carboxamide] | < 100 nM | A (Category A: A≥75% degradation) | A (Category A: A≥75% degradation) | A (Category A: A≥75% degradation)
